# Results as given in ChEMBL document CHEMBL1255176, “Novel dihydropyrimidines as a potential new class of antitubercular agents” (2010).
# Legend:
# Assay type in all cases: functional
# [1] = tested on: Mycobacterium tuberculosis; assay: Antitubercular activity against Mycobacterium tuberculosis H37Rv at 6.25 ug/ml by microplate alamar blue assay
# [2] = Selectivity index, ratio of IC50 for african green monkey Vero cells to MIC for Mycobacterium tuberculosis H37Rv
# [3] = tested on: Mycobacterium tuberculosis; assay: Antitubercular activity against Mycobacterium tuberculosis H37Rv by twofold dilution method
SMILES,inhibition at 6.25 µg/mL [1] [%],Selectivity Index [2],MIC [3] [µg/mL]
COC(=O)C1=C(C)NC(=S)NC1c1cn(-c2ccccc2)nc1-c1ccc(F)cc1 (centres undefined),73,–,–
CCOC(=O)C1=C(C)NC(=O)NC1c1cn(-c2ccccc2)nc1-c1ccc([N+](=O)[O-])cc1 (centres undefined),100,>500,0.02
CCOC(=O)C1=C(C)NC(=S)NC1c1cn(-c2ccccc2)nc1-c1ccc(Cl)cc1 (centres undefined),75,–,–
CCOC(=O)C1=C(C)NC(=O)NC1c1cn(-c2ccccc2)nc1-c1ccc(C)cc1 (centres undefined),68,–,–
CCOC(=O)C1=C(C)NC(=O)NC1c1cn(-c2ccccc2)nc1-c1ccc(Br)cc1 (centres undefined),33,–,–
COC(=O)C1=C(C)NC(=O)NC1c1cn(-c2ccccc2)nc1-c1ccc(Br)cc1 (centres undefined),90,>1.6,6.25
COC(=O)C1=C(C)NC(=S)NC1c1cn(-c2ccccc2)nc1-c1ccc(Cl)cc1 (centres undefined),68,–,–
CCOC(=O)C1=C(C)NC(=S)NC1c1cn(-c2ccccc2)nc1-c1ccc(F)cc1 (centres undefined),30,–,–
NNC(=O)c1ccncc1 [ISONIAZID],–,–,0.03
CCOC(=O)C1=C(C)NC(=N)NC1c1cn(-c2ccccc2)nc1-c1ccc([N+](=O)[O-])cc1 (centres undefined),58,–,–
CCOC(=O)C1=C(C)NC(SC)NC1c1cn(-c2ccccc2)nc1-c1ccc(F)cc1 (centres undefined),8,–,–
COC(=O)C1=C(C)NC(=O)NC1c1cn(-c2ccccc2)nc1-c1ccc(F)cc1 (centres undefined),62,–,–
CCOC(=O)C1=C(C)NC(SC)NC1c1cn(-c2ccccc2)nc1-c1ccc(C)cc1 (centres undefined),97,4.7,1.56
CCOC(=O)C1=C(C)NC(SC)NC1c1cn(-c2ccccc2)nc1-c1ccc(Cl)cc1 (centres undefined),13,–,–
CCOC(=O)C1=C(C)NC(=N)NC1c1cn(-c2ccccc2)nc1-c1ccc(F)cc1 (centres undefined),18,–,–
CCOC(=O)C1=C(C)NC(=S)NC1c1cn(-c2ccccc2)nc1-c1ccc(Br)cc1 (centres undefined),87,–,–

SMILES,inhibition at 6.25 µg/mL [1] [%],Selectivity Index [2],MIC [3] [µg/mL]
CCOC(=O)C1=C(C)NC(=N)NC1c1cn(-c2ccccc2)nc1-c1ccc(C)cc1 (centres undefined),78,–,–
COC(=O)C1=C(C)NC(=O)NC1c1cn(-c2ccccc2)nc1-c1ccc(Cl)cc1 (centres undefined),75,–,–
CCOC(=O)C1=C(C)NC(=O)NC1c1cn(-c2ccccc2)nc1-c1ccc(F)cc1 (centres undefined),100,>500,0.02
CCOC(=O)C1=C(C)NC(=N)NC1c1cn(-c2ccccc2)nc1-c1ccc(Cl)cc1 (centres undefined),94,>3.2,3.13
CCOC(=O)C1=C(C)NC(=O)NC1c1cn(-c2ccccc2)nc1-c1ccc(Cl)cc1 (centres undefined),49,–,–
COC(=O)C1=C(C)NC(=S)NC1c1cn(-c2ccccc2)nc1-c1ccc(C)cc1 (centres undefined),46,–,–
CCOC(=O)C1=C(C)NC(=S)NC1c1cn(-c2ccccc2)nc1-c1ccc([N+](=O)[O-])cc1 (centres undefined),92,>3.2,3.13
CCOC(=O)C1=C(C)NC(=S)NC1c1cn(-c2ccccc2)nc1-c1ccc(C)cc1 (centres undefined),96,5.7,1.56
CCOC(=O)C1=C(C)NC(SC)NC1c1cn(-c2ccccc2)nc1-c1ccc([N+](=O)[O-])cc1 (centres undefined),37,–,–
CCOC(=O)C1=C(C)NC(=N)NC1c1cn(-c2ccccc2)nc1-c1ccc(Br)cc1 (centres undefined),51,–,–
COC(=O)C1=C(C)NC(=S)NC1c1cn(-c2ccccc2)nc1-c1ccc(Br)cc1 (centres undefined),43,–,–
COC(=O)C1=C(C)NC(=S)NC1c1cn(-c2ccccc2)nc1-c1ccc([N+](=O)[O-])cc1 (centres undefined),91,3,3.13
COC(=O)C1=C(C)NC(=O)NC1c1cn(-c2ccccc2)nc1-c1ccc([N+](=O)[O-])cc1 (centres undefined),39,–,–
CCOC(=O)C1=C(C)NC(SC)NC1c1cn(-c2ccccc2)nc1-c1ccc(Br)cc1 (centres undefined),13,–,–
COC(=O)C1=C(C)NC(=O)NC1c1cn(-c2ccccc2)nc1-c1ccc(C)cc1 (centres undefined),98,>6.4,1.56
